Source: patent publication US4761398A, “Method of inducing birds to molt” (Embrex, Inc., priority 1986, dated 1988)

What was measured:
[1] = system: single combed White Leghorn hens; assay type: in vivo
Excerpt: (§1) After the two week pre-molt adjustment period, the hens were randomly assigned to each of eight different groups. These treatment groups were as follows: (1) control, (2) forced molt, (3) chemical molt-injected, (4) vehicle control-injected, (5) chemical molt-microcapsules A, (6) vehicle control-microcapsules A, (7) chemical molt-microcapsules B, and (8) vehicle control-microcapsules B.
(§2) [D-Trp^6 ]LHRH was used as the LHRH receptor ligand for the chemical molt groups. The "chemical molt-injected" group received intramuscular (breast) injections of 25 micrograms/day of [D-Trp^6 ]LHRH for 10 consecutive days beginning on day 14. Alternate pectoral (breast) areas were injected each day. The "chemical molt-microcapsule" groups received a single intramuscular (breast) injection of microencapsulated [D-Trp^6 ]LHRH on day zero. This preparation of microcapsules provided a controlled release of 25 micrograms [D-Trp^6 ]LHRH per day for 15 consecutive days.
(§3) On day 14, the microcapsule injected groups received intramuscular injections of lactide/glycolide copolymer microcapsules which had [D-Trp^6 ]LHRH incorporated therein. The ligand-containing microcapsules administered the "Microcapsules A" group were prepared and supplied by Debiopharm (Lausanne, Switzerland). These microcapsules were prepared by a phase-separation process to produce a free-flowing powder of spherical particles consisting of [D-Trp^6 ]LHRH (2% wt/wt) distributed within a polymeric matrix of 53:47(mol %) poly(DL-lactide-co-glycolide) (98% wt/wt) with an inherent viscosity of 0.7 dl/g. The microcapsules were 50 micrometers or less in diameter. […] Photomicrographs of similar microcapsules are presented in T. W. Redding, et al., Proc. Natl. Acad. Sci. U.S.A., 81, 5845 (Sept. 1984).
After the forced molt group achieved a 30% body weight loss, i.e., after 10 days of fasting, six hens from each group were necropsied. The liver, abdominal adipose tissue (fat pad), ovary plus ova and oviduct weights were measured. The remaining forced molt hens received a limited quantity of feed for two days, and were then fed ad libitum. For all groups, body weight and feed consumption were measured weekly. The lighting regime was increased, at weekly intervals, from natural day length to 17 hour light: seven hour dark. For the forced molt and chemical molt groups, when the first egg was produced after the molt, body weights were measured and body weights taken for the 10 selected birds.

[2] = system: single combed White Leghorn hens; assay: Egg parameters (specific gravity, total egg weight, shell weight); assay type: in vivo
Method: During the experiment, two birds were assigned to each cage (12"×18"). The hens were maintained in their cages for two weeks prior to the molt. They received a 17 hour light: 7 hour dark photoperiod throughout this phase of the experiment. During this time, the following parameters were measured:(a) body weight (weekly); (b) feed consumption (all hens received a common layer ration, and the feed consumed during this two week period was measured); (C) production records (daily); and (d), total egg weight, egg shell weight, and egg specific gravity (measured on three consecutive days each week). Serum samples were taken once, from 10 randomly selected hens from each treatment group, and saved for future study.
as §1, §2, §3
The remaining hens were maintained for a three month production period, during which the following parameters were measured: a. body weight (weekly for the first month and then twice a month); b. feed consumption (measured weekly); c. egg production (measured daily); and d. egg weight, shell weight and specific gravity (measured for three consecutive days each week for the first month, and then three consecutive days every two weeks).

[3] = hens killed immediately after the molt, Day 23
[4] = Week 1 = days zero-2, before treatment
[5] = Week 2 = days 6-8, before treatment

Substance: [D-Trp^6 ]LHRH [D-Trp^6 --LHRH]
- involution of reproductive tract ([1]; both treated groups): exhibited involution of their reproductive tracts
- Ovary Wt. [1, 3]: 10.38 g
- Oviduct Wt. [1, 3]: 17.65 g
- Abdominal Adipose Tissue Wt. ([1]; in vivo): 55.73 g
- Body Wt. ([1]; in vivo): 1.784 kg
- EGG SHELL WEIGHT [2, 4]: 5.46 g
- EGG SPECIFIC GRAVITY [2, 4]: 1.079 (g/cm)^3
- TOTAL EGG WEIGHT [2, 4]: 66.04 g
- EGG SHELL WEIGHT [2, 5]: 5.82 g
- EGG SPECIFIC GRAVITY [2, 5]: 1.082 (g/cm)^3
- TOTAL EGG WEIGHT [2, 5]: 67.72 g
- EGG SHELL WEIGHT ([2]; Week 3 = days 40-42): 5.15 g
- EGG SPECIFIC GRAVITY ([2]; Week 3 = days 40-42): 1.075 (g/cm)^3
- TOTAL EGG WEIGHT ([2]; Week 3 = days 40-42): 64.38 g
- EGG SHELL WEIGHT ([2]; Week 4 = days 47-49): 5.61 g
- EGG SPECIFIC GRAVITY ([2]; Week 4 = days 47-49): 1.079 (g/cm)^3
- TOTAL EGG WEIGHT ([2]; Week 4 = days 47-49): 68.27 g
- EGG SHELL WEIGHT ([2]; Week 5 = days 54-56): 5.79 g
- EGG SPECIFIC GRAVITY ([2]; Week 5 = days 54-56): 1.079 (g/cm)^3
- TOTAL EGG WEIGHT ([2]; Week 5 = days 54-56): 68.81 g
- EGG SHELL WEIGHT ([2]; Week 6 = days 61-63): 5.65 g
- EGG SPECIFIC GRAVITY ([2]; Week 6 = days 61-63): 1.080 (g/cm)^3
- TOTAL EGG WEIGHT ([2]; Week 6 = days 61-63): 67.4 g
- EGG SHELL WEIGHT ([2]; Week 7 = days 75-77): 5.59 g
- EGG SPECIFIC GRAVITY ([2]; Week 7 = days 75-77): 1.079 (g/cm)^3
- TOTAL EGG WEIGHT ([2]; Week 7 = days 75-77): 67.19 g
- quality of eggs produced after the molt ([2]; compared with conventional Forced Molted Group): as good in quality as the eggs produced by the conventional Forced Molted Group
